Results: US6737383B1, “Herbicidal oxadiazolidines” (priority 1999, dated 2004)

Tests used:
smallflower flatsedge = assay: Test B flood test smallflower flatsedge; type: in vivo, Cyperus difformis
Outline: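 Flood test on plants grown to the 2-leaf stage; treated plants kept in greenhouse twelve to sixteen days, then visually rated against controls on a 0 (no effect) to 10 (complete control) scale.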

bermuda-grass = assay: Test D bermudagrass; type: in vivo, Cynodon dactylon; conditions: Preemergence, 0 to 100 scale
Outline: (§1)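 Each weed species is planted in its own pot or compartment; preemergence doses go on the sandy loam surface within a day. The formulation is a surfactant-containing, non-phytotoxic solvent blend. Ratings come from visual comparison with untreated controls 14 to 21 days later, where 100 means complete control.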

common pursiane = assay: Test D common purslane; type: in vivo, Portulaca oleracea; conditions: Preemergence, 0 to 100 scale
Outline: as §1

bedstraw = assay: Test B pre/postemergence bedstraw; type: in vivo, Galium aparine
Outline: (§2)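 Test chemicals in a non-phytotoxic solvent mixture with surfactant were sprayed preemergence onto planted seeds and postemergence onto plants 2 to 18 cm tall (1- to 4-leaf stage). After twelve to sixteen days in a greenhouse, injury was visually rated against untreated controls from 0 (no effect) to 10 (complete control).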

winter barley = assay: Test E winter barley; type: in vivo, Hordeum vulgare; conditions: Preemergence
winter wheat [1] = assay: Test E winter wheat; type: in vivo, Triticum aestivum; conditions: Postemergence
Outline: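 Each compound, carried in a non-phytotoxic solvent blend including surfactant, was applied (postemergence: over the top of young plants at 1- to 4-leaf stage). Plants stayed in the greenhouse about 21 to 28 days before visual comparison with untreated controls.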

green foxtail = assay: Test E green foxtail; type: in vivo, Setaria viridis; conditions: Preemergence
winter wheat [2] = assay: Test E winter wheat; type: in vivo, Triticum aestivum; conditions: Preemergence
surinam grass = assay: Test B pre/postemergence surinam grass; type: in vivo, Brachiaria decumbens
Outline: as §2

wild oat = assay: Test E wild oat; type: in vivo, Avena fatua; conditions: Preemergence
blackgrass [3] = assay: Test E blackgrass; type: in vivo, Alopecurus myosuroides; conditions: Preemergence
blackgrass [4] = assay: Test B pre/postemergence blackgrass; type: in vivo, Alopecurus myosuroides
Outline: as §2

Italian ryegrass = assay: Test E Italian ryegrass; type: in vivo, Lolium multiflorum; conditions: Preemergence
[5] = Rate 16 g/ha, 0 no injury, 100 complete control
[6] = Rate 32 g/ha, 0 no injury, 100 complete control
[7] = Rate 64 g/ha, 0 no injury, 100 complete control
[8] = Rate 125 g/ha, 0 no injury, 100 complete control
[9] = Postemergence, Rate 62 g/ha, scale 0 to 10, 0 is no effect, 10 is complete control
[10] = Postemergence, Rate 250 g/ha, scale 0 to 10, 0 no effect, 10 complete control
[11] = Preemergence, Rate 125 g/ha, scale 0 to 10 (0 no effect, 10 complete control)
[12] = Preemergence, Rate 250 g/ha, scale of 0 to 10 where 0 is no effect and 10 is complete control
[13] = Preemergence, Rate 500 g/ha, scale 0 to 10 (0 no effect, 10 complete control)
[14] = Rate 125 g/ha, Postemergence, scale 0 to 10, 0 no effect, 10 complete control
[15] = Rate 500 g/ha, Postemergence, scale 0 to 10, 0 no effect, 10 complete control
[16] = Rate 62 g/ha, 0 to 100 scale, 0 no effect, 100 complete control
[17] = Rate 125 g/ha, 0 to 100 scale (0 no effect, 100 complete control)
[18] = Preemergence, Rate 62 g/ha, scale 0 to 10 (0 no effect, 10 complete control)

CCCn1c(=O)on(C(=O)N(c2ccc(Cl)cc2)C(C)C)c1=O [Compound 119]
S. Flatsedge plant response rating (smallflower flatsedge; Pre-emergence, Rate 1000 g/ha, scale 0 to 10 (0 no effect, 10 complete control)): 0
S. Flatsedge plant response rating (smallflower flatsedge; Rate 250 g/ha, headed Pre-emergence (flood test species), scale 0 to 10 (0 no effect, 10 complete control)): 0
Plant response rating, S. Flatsedge (smallflower flatsedge; Rate 500 g/ha, headed Pre-emergence (flood test species), scale 0 to 10 (0 no effect, 10 complete control)): 0
S. Flatsedge plant response rating (smallflower flatsedge; Rate 2000 g/ha, Pre-emergence (as headed), scale 0 to 10): 0
Plant response rating, Bermudagrass (bermuda-grass; [5]): 50
Plant response rating, Bermudagrass (bermuda-grass; [6]): 65
Plant response rating, Bermudagrass (bermuda-grass; [7]): 100
Plant response rating, Bermudagrass (bermuda-grass; [8]): 100
Plant response rating, Bermudagrass (bermuda-grass; Rate 250 g/ha): 100
Plant response rating, C. purslane (common pursiane; [5]): 0
Plant response rating, C. purslane (common pursiane; [6]): 0
Plant response rating, C. purslane (common pursiane; [7]): 0
Plant response rating, C. purslane (common pursiane; [8]): 0
Plant response rating, C. purslane (common pursiane; Rate 250 g/ha): 0
Bedstraw plant response rating (bedstraw; [9]): 0
Bedstraw plant response rating (bedstraw; [10]): 4
Plant response rating, Bedstraw (bedstraw; [11]): 0
Plant response rating, Bedstraw (bedstraw; [12]): 2
Bedstraw plant response rating (bedstraw; [13]): 8
Bedstraw plant response rating (bedstraw; [14]): 2
Bedstraw plant response rating (bedstraw; [15]): 8
Plant response rating, Barley (winter) (winter barley; [16]): 5
Plant response rating, Barley (winter) (winter barley; [17]): 10
Plant response rating, Barley (winter) (winter barley; Rate 250 g/ha, 0 to 100 scale): 10
Plant response rating, Wheat (winter) (winter wheat [1]; Rate 62 g/ha, 0 to 100 scale): 10
Plant response rating, Wheat (winter) (winter wheat [1]; Rate 125 g/ha, 0 to 100 scale): 10
Plant response rating, Wheat (winter) (winter wheat [1]; Rate 250 g/ha, 0 to 100 scale (0 no effect, 100 complete control)): 20
Plant response rating, Green foxtail (green foxtail; [16]): 10
Plant response rating, Green foxtail (green foxtail; [17]): 50
Plant response rating, Green foxtail (green foxtail; Rate 250 g/ha, 0 to 100 scale): 60
Plant response rating, Wheat (winter) (winter wheat [2]; [16]): 0
Plant response rating, Wheat (winter) (winter wheat [2]; [17]): 20
Plant response rating, Wheat (winter) (winter wheat [2]; Rate 250 g/ha, 0 to 100 scale): 30
B. signalgrass plant response rating (surinam grass; [9]): 0
B. signalgrass plant response rating (surinam grass; [10]): 3
B. signalgrass plant response rating (surinam grass; [18]): 5
Plant response rating, B. signalgrass (surinam grass; [11]): 7
Plant response rating, B. signalgrass (surinam grass; [12]): 7
B. signalgrass plant response rating (surinam grass; [13]): 9
B. signalgrass plant response rating (surinam grass; [14]): 0
B. signalgrass plant response rating (surinam grass; Rate 500 g/ha, Postemergence, scale of 0 to 10 where 0 is no effect and 10 is complete control): 5
Plant response rating, Wild oat (wild oat; [16]): 20
Plant response rating, Wild oat (wild oat; [17]): 10
Plant response rating, Blackgrass (blackgrass [3]; [16]): 20
Plant response rating, Blackgrass (blackgrass [3]; [17]): 10
Plant response rating, Blackgrass (blackgrass [3]; Rate 250 g/ha, 0 to 100 scale): 50
Blackgrass plant response rating (blackgrass [4]; Postemergence, Rate 125 g/ha, scale of 0 to 10 where 0 is no effect and 10 is complete control): 3
Blackgrass plant response rating (blackgrass [4]; [10]): 7
Blackgrass plant response rating (blackgrass [4]; [18]): 5
Plant response rating, Blackgrass (blackgrass [4]; [11]): 8
Plant response rating, Blackgrass (blackgrass [4]; [12]): 9
Blackgrass plant response rating (blackgrass [4]; [13]): 9
Blackgrass plant response rating (blackgrass [4]; Rate 62 g/ha, Postemergence, scale of 0 to 10 where 0 is no effect and 10 is complete control): 2
Blackgrass plant response rating (blackgrass [4]; [15]): 8
Plant response rating, I. Ryegrass (Italian ryegrass; [16]): 10
Plant response rating, I. Ryegrass (Italian ryegrass; [17]): 35
Plant response rating, I. Ryegrass (Italian ryegrass; Rate 250 g/ha, 0 to 100 scale): 60
